In one test the test system is Miapaca-2 cells. The test can be described thus: MiaPaca-2 Combination Cell proliferation Assay (1) with cobimetinib. In kind it is cell-based. Particulars: MiaPaca-2 cell proliferation, read-out: MiaPaca-2 Combo (1) IC50. On the procedure:
MiaPaca-2 Combination Cell proliferation Assay (1)
Miapaca-2 cells (catalog #CRL-1420) are obtained from the American Type Culture Collect (ATCC, Manassas, VA). Briefly, cells were grown in DMEM supplemented with 10% characterized fetal bovine serum (Invitrogen, Carlsbad, CA), 2.5% New Zealand sourced horse serum and 1% Penicillin/Streptomycin/L-Glutamine at 37° C., 5% CO2, and 95% humidity. Cells are expanded until reaching 70-95% confluency at which point they are subcultured or harvested for assay use. A serial dilution of test compound was dispensed into multiple 96-well black clear bottom plates in triplicate. A serial dilution of complete growth medium containing cobimetinib was prepared at twice the final concentration and 100 μL was dispensed across the test compound titration in triplicate. Three thousand cells are added per well in 100 μL complete growth medium in each 96-well plate. Plates are incubated for 67-72 hours at 37° C., 5% CO2, and 95% humidity. At the end of the incubation, 40 μL of a 440 μM solution of resazurin (Sigma, St. Louis, MO) in PBS is added to each well of the plate and plates are incubated for an additional 5-7 hours at 37° C., 5% CO2, and 95% humidity. Plates are read on a Synergy2 or equivalent reader (Biotek, Winooski VT) using an excitation of 540 nm and an emission of 600 nm. Drug synergy was assessed via BLISS analysis in the Combenefit software (Cancer Research UK Cambridge Institute, Cambridge, UK). Data is analyzed using Prism software (Graphpad, San Diego, CA) to calculate IC50 values. Shifts in test compound IC50 values are reported from top-constrained combination therapy curves.

In another test the test system is WM3629 cells. As to the kind of experiment: WM3629 Cell Proliferation Assay (1). Format: cell-based. On the procedure:
WM3629 Cell Proliferation Assay (1)
WM3629 cells (#WM3629-01-0001) are obtained from Rockland Immunochemicals Inc (Gilbertsville, PA). Briefly, cells were grown in MCDB 153 medium (Sigma, #M7403, St. Louis, MO) supplemented with 20% Leibovitz's L-15 (ThermoFisher #11415-064, Waltham, MA), 2% heat inactivated fetal bovine serum (ThermoFisher, #A3840001, Waltham, MA), 5 μg/mL Insulin (Bovine Pancreas) (Sigma, #10516, St. Louis, MO), 1.68 mM Calcium Chloride (Sigma, #C-34006, St. Louis, MO) and 1% Penicillin/Streptomycin/L-Glutamine (ThermoFisher #10378016, Waltham, MA) at 37° C., 5% CO2, and 95% humidity. Cells are expanded until reaching 70-95% confluency at which point they are subcultured or harvested for assay use. A serial dilution of test compound is dispensed into a 96-well black clear bottom plate in triplicate. Four thousand five hundred cells are added per well in 200 μL complete growth medium in the 96-well plate. Plates are incubated for 67-72 hours at 37° C., 5% CO2, and 95% humidity. At the end of the incubation, 40 μL of a 440 μM solution of resazurin (Sigma, #199303, St. Louis, MO) in PBS is added to each well of the plate and plates are incubated for an additional 6-7 hours at 37° C., 5% CO2, and 95% humidity. Plates are read on a Synergy2 or equivalent reader (Biotek, Winooski VT) using an excitation of 540 nm and an emission of 600 nm. Data is analyzed using Prism software (GraphPad, San Diego, CA) to calculate IC50 values.

We go through 26 compounds from US12319655B2, “RAF kinase inhibitors and methods of use thereof” (Deciphera Pharmaceuticals, LLC, priority 2021, dated 2025).

With `Cc1ccc(NC(=O)c2ccnc(C(F)F)c2)cc1-c1ccnc(-c2ccnc(NC(=O)C3CC3)c2)n1` [Example 189], in the test on Miapaca-2 cells, the IC50 fell in the range of 100 to 500 nM.
Still for that read-out and setting: the same measure for `Cc1ncc(NC(=O)c2ccnc(C(C)(C)C#N)c2)cc1-c1ccnc(-c2ccnc(NC(=O)C3CC3)c2)n1` [Example 193]: ≤ 100 nM.
With `CNC(=O)c1cc(-c2cc(-c3cc(NC(=O)c4ccnc(C(C)(C)F)c4)ccc3C)ccn2)ccn1` [Example 214], the IC50 in the test with Miapaca-2 cells is 100 to 500 nM; with WM3629 cells it was ≤ 100 nM.
With `Cc1ccc(NC(=O)c2ccnc(C(C)(C)C#N)c2)cc1-c1cccc(-c2cc(NC(=O)C3(C)CC3)ncn2)c1` [Example 197], the IC50 with Miapaca-2 cells fell in the range of 100 to 500 nM.
Turning to `CNC(=O)c1cc(-c2cncc(-c3cc(NC(=O)c4ccnc(C(C)(C)C#N)c4)ccc3C)c2)ncn1` [Example 235], the IC50 is 100 to 500 nM in the test with Miapaca-2 cells and ≤ 100 nM in the test on WM3629 cells.
Turning to `Cc1ccc(NC(=O)c2ccnc(C3CC3)c2)cc1-c1ccnc(-c2ccnc(NC(=O)C3CC3)c2)n1` [Example 229], the IC50 in the test on WM3629 cells is ≤ 100 nM.
As to `Cc1cc(-c2cc(NC(=O)C3CC3)ncn2)cc(-c2cc(NC(=O)c3ccnc(C(C)(C)C#N)c3)ccc2C)c1` [Example 212], the IC50 in the test on WM3629 cells was ≤ 100 nM.
Take `Cc1ncc(NC(=O)c2ccnc(C(C)(C)C#N)c2)cc1-c1cccc(-c2ccnc(NC(=O)C3CC3)c2)c1` [Example 222]: the 50% inhibitory concentration (IC50) in the test with Miapaca-2 cells and in the test on WM3629 cells was ≤ 100 nM throughout.
Take `Cc1ccc(NC(=O)c2ccnc(C(C)(C)C#N)c2)cc1-c1ccnc(-c2ccnc(NC(=O)C3CC3)c2)n1` [Example 257]: in the test with Miapaca-2 cells, the IC50 is ≤ 100 nM.
In the case of `Cc1ccc(NC(=O)c2ccnc(C(C)(C)C#N)c2)cc1-c1cccc(-c2ccnc(NC(=O)C3CC3)c2)c1` [Example 223], the IC50 in the test on Miapaca-2 cells was ≤ 100 nM.
`CNC(=O)c1cc(-c2cc(-c3cc(NC(=O)c4ccnc(C(C)(C)OC)c4)ccc3C)ccn2)ccn1` [Example 264]: the IC50 in the test on WM3629 cells is ≤ 100 nM.
As for `Cc1ncc(NC(=O)c2ccnc(C(C)(C)C#N)c2)cc1-c1ccnc(-c2ccnc(NC(=O)C3CC3)c2)c1` [Example 251], the IC50 with Miapaca-2 cells is ≤ 100 nM.
As for `COC(=O)Nc1cc(-c2cccc(-c3cc(NC(=O)c4ccnc(C(C)(C)C#N)c4)cnc3C)c2)ncn1` [Example 225], the IC50 in the test on Miapaca-2 cells was ≤ 100 nM.
In the case of `Cc1ccc(NC(=O)c2ccnc(C(C)(C)C#N)c2)cc1-c1cncc(-c2cc(NC(=O)C3CC3)ncn2)c1` [Example 224], the IC50 in the test with Miapaca-2 cells and in the test on WM3629 cells was ≤ 100 nM throughout.
Regarding `Cc1ncc(NC(=O)c2ccnc(C(C)(C)F)c2)cc1-c1cccc(-c2cc(NC(=O)C3CC3)ncn2)c1` [Example 249], the IC50 in the test on Miapaca-2 cells and in the test on WM3629 cells was ≤ 100 nM in each case.
With `Cc1ncc(NC(=O)c2cnn(C(C)(C)C)c2)cc1-c1cccc(-c2cc(NC(=O)C3CC3)ncn2)c1` [Example 279], the concentration for half-maximal inhibition (IC50) in the test on Miapaca-2 cells is ≤ 100 nM.
As for `Cc1ccc(NC(=O)c2ccnc(C(C)(C)F)c2)cc1-c1ccnc(-c2ccnc(NC(=O)C3CC3)c2)n1` [Example 186], in the test with WM3629 cells, the IC50 is ≤ 100 nM.
For `COC(C)(C)c1cc(C(=O)Nc2cnc(C)c(-c3cccc(-c4cc(NC(=O)C5CC5)ncn4)c3)c2)ccn1` [Example 274], the IC50 with Miapaca-2 cells and in the test on WM3629 cells was ≤ 100 nM each time.
`CC(=O)Nc1cc(-c2cc(-c3cc(NC(=O)c4ccnc(C(C)(C)C#N)c4)ccc3C)ccn2)ccn1` [Example 19]: the IC50 in the test on Miapaca-2 cells was ≤ 100 nM.
The same measure, in the same setting: the same measure for `CC(=O)Nc1cc(-c2cc(-c3cc(NC(=O)c4ccnc(C(F)(F)F)c4)ccc3C)cc(N3CCOCC3)n2)ccn1` [Example 15]: ≤ 100 nM.
Consider `Cc1ccc(NC(=O)c2ccnc(C3(C#N)CC3)c2)cc1-c1nccc(-c2ccnc(NC(=O)C3CC3)c2)n1` [Example 187], for which the IC50 in the test with WM3629 cells is ≤ 100 nM.
Consider `Cc1ccc(NC(=O)c2ccnc(C(C)(C)C#N)c2)cc1-c1cc(-c2ccnc(NC(=O)C3CC3)c2)cnn1` [Example 245], for which the IC50 in the test on Miapaca-2 cells and in the test with WM3629 cells was ≤ 100 nM throughout.
Consider `Cc1ccc(NC(=O)c2ccnc(C(C)(C)C#N)c2)cc1-c1ccnc(-c2ccnc(NC(=O)C3(C#N)CC3)c2)n1` [Example 241], for which the IC50 with Miapaca-2 cells was 100 to 500 nM.
Consider `CNC(=O)c1cc(-c2cc(-c3cc(NC(=O)c4ccnc(C5(C#N)CC5)c4)ccc3C)ccn2)ccn1` [Example 265], for which, in the test with Miapaca-2 cells, the IC50 lay in the range of 100 to 500 nM.
As to `Cc1ccc(NC(=O)c2ccnc(C(C)(C)C#N)c2)cc1-c1cnnc(-c2ccnc(NC(=O)C3CC3)c2)c1` [Example 230], the 50% inhibitory concentration (IC50) in the test on Miapaca-2 cells is ≤ 100 nM.
The same measure, in the same setting: as for `CCOc1cc(-c2cc(NC(=O)c3ccnc(C(F)(F)F)c3)ccc2C)cc(-c2ccnc(NC(=O)C3CC3)c2)n1` [Example 12], the figure is 100 to 500 nM.
